pIC50: −log10 of the molar value. Where “and” joins values, the source holds several entries; their conditions need not be identical. Equal entries are not always repeated. Where two headings read alike, the source gives them in different places.
Legend:
RKO = test: cell viability in human CRC cell line RKO; format: cell-based
Method: To generate KAP^2D cells, KAP organoids were isolated from Matrigel, fragmented by mechanical dissociation and plated without any extracellular matrix on common cell culture dishes. Phoenix-Eco packaging cells (CRL-3214), HCT-15 (CCL-225), HCT 116 (CCL-247), COLO 205 (CCL-222), LS 174T (CL-188), RKO (CRL-2577) and HT-29 (HTB-38) were obtained from the American Type Culture Collection. The cells were cultured at 37 °C and 7% CO2 with RPMI (KAP^2D cells) or DMEM (other cell lines), supplemented with 10% FBS and penicillin–streptomycin. KAP^2D cells were authenticated using PCR (Kras locus and Trp53 locus). Phoenix-Eco packaging cells and HCT-15, HCT 116, COLO 205, LS 174T, RKO and HT-29 cells were authenticated by the provider using short tandem repeat profiling. No commonly misidentified cell lines were used. Mycoplasma contamination was excluded by a PCR-based analysis.
For in vitro treatment studies, organoids were mechanically dissociated and digested using TrypLE supplemented with 100 µg ml^−1 DNaseI and 10.5 µM Y-27632 dihydrochloride (Invitrogen) at 37 °C. A total of 1,000–2,000 single cells were plated per well in white 96-well plates (Greiner) in culture medium containing 10% GFR Matrigel or Cultrex BME. The treatment with doxycycline (5 µg ml^−1), pharmacological inhibitors or corresponding volumes of DMSO was started 24 h after plating. Doxycycline was obtained from Sigma-Aldrich. […] Cell viability was measured by means of CellTiter-Glo 3D or CellTiter-Glo 2.0 reagent (Promega) according to the manufacturers’ instructions and the Infinite M Plex reader (Tecan, i-control version 3.9.1 software). Results were normalized to vehicle (DMSO) or to shNC. For cell-doubling assays, the cell number was quantified at the corresponding time points using Guava EasyCyte flow cytometer (Luminex, CytoSoft v5.2 software).

KAP^2D cells [1] = test: P-H3^S10 / α-tubulin staining, mitotic phases in KAP^2D cells; format: cell-based, mouse; conditions: replicates, experiment and repetition
Method: Immunofluorescence staining on cells and organoids was performed on glass coverslips or tissue culture chambers (Sarstedt). Organoids were plated in medium containing 10% Matrigel or Cultrex BME. The cultures were fixed with 4% paraformaldehyde and stained with specific antibodies and DAPI (Vector Labs). All used antibodies and dilutions are listed in the Nature Portfolio Reporting Summary. For analyzing DNA synthesis, the Molecular Probes Click-iT EdU Alexa Fluor 555 kit was used 24 h after EdU incorporation with DAPI counterstaining. SA-β-Gal staining of cells was performed in cell culture dishes (cells) or tissue culture chambers (organoids) after fixation with 0.5% glutaraldehyde as described above. Human cultures were incubated with X-Gal solution at pH 6.0 for ~4 h. […] Positive cells were quantified using ImageJ version 1.53a software. The analysis of mitosis was performed with an LSM800 Airyscan (Zeiss) microscope (ZEN version 3.0 software). An Airyscan autofilter processing was applied before image analysis.

KAP^2D cells [2] = test: annexin V apoptosis analysis in KAP^2D cells; format: cell-based, mouse; conditions: for Annexin V+ cells: Fig. 5a
Method: Apoptosis was analyzed with the FITC annexin V apoptosis detection kit (Biolegend). Both measurements were performed with FACS Canto II (BD) and physical parameters were used to exclude cell debris and cell doublets.

KAP liver metastasis = test: survival of wild-type mice with KAP liver metastasis; format: in vivo, mouse
Method: Subcutaneous injection, splenic seeding or cecum injection of organoids was performed in 8–10-week-old C57BL/6 N/Crl, Rag2^−/− (B6.Cg-Rag2^tm1.1Cgn/J), or CB17 Scid beige (CB17.Cg-Prkdc^scidLyst^bg-J/Crl) mice, obtained from Charles River. The organoids were dissociated into single cells, washed with PBS and injected in a 1:1 mixture of PBS and Matrigel. For murine organoids, 1 × 10^5 cells were injected into the left and right flanks or the spleen capsule and 2 × 10^6 cells were injected into the cecum wall. For human organoids, 4 × 10^5 cells were injected into the flanks of CB17 Scid beige mice. For splenic seeding and cecum injection, mice were anaesthetized using ketamine (100 mg kg^−1, intraperitoneally) and xylazin (10 mg/kg, intraperitoneally) in NaCl and a small laparotomy below the thorax was performed.
No mice were excluded during treatment studies.

For `CNC(=O)c1ccc2c(c1)C(=O)c1ccc(Nc3ccc(F)c(NC(=O)C4CC4)c3)cc1CC2` [Compound 2015], the “RKO Cell viability (%)” value (RKO; 0.1235 µM, ED Fig. 9g, first experiment, replicates) was 80.06% and 70.93%, the “RKO Cell viability (%)” value (RKO; 0.3704 µM, ED Fig. 9g, Repetition, replicates) was 22.09% and 24.58% and the “RKO Cell viability (%)” value (RKO; 0.3704 µM, ED Fig. 9g, first experiment, replicates) was 38.23% and 37.54%. For the same compound, the “RKO Cell viability (%)” value (RKO; 1.1111 µM, ED Fig. 9g, Repetition, replicates) was 19.45% and 19.66%, the “RKO Cell viability (%)” value (RKO; 1.1111 µM, ED Fig. 9g, first experiment, replicates) was 16.15% and 15.81% and the “RKO Cell viability (%)” value (RKO; 3.3333 µM, ED Fig. 9g, Repetition, replicates) was 19.33% and 18.47%. For the same compound, the “RKO Cell viability (%)” value (RKO; 3.3333 µM, ED Fig. 9g, first experiment, replicates) was 14.04% and 13.50%, the “RKO Cell viability (%)” value (RKO; 10.0000 µM, ED Fig. 9g, Repetition, replicates) was 17.62% and 19.44% and the “RKO Cell viability (%)” value (RKO; 10.0000 µM, ED Fig. 9g, first experiment, replicates) was 15.71% and 16.52%. The pIC50 (RKO; Homo sapiens, 96 h, RKO, 4 d of treatment) was 6.68, the viability at 0.0137 µM (RKO; Homo sapiens, RKO, 0.0137 µM, ED Fig. 9g, first experiment, replicates, read-out: RKO Cell viability (%)) was 104% and the viability at 0.0412 µM (RKO; Homo sapiens, RKO, ED Fig. 9g, Repetition, replicates, read-out: RKO Cell viability (%)) was 103%. It also gave a viability at 0.0412 µM (RKO; Homo sapiens, RKO, ED Fig. 9g, first experiment, replicates, read-out: RKO Cell viability (%)) of 104%, a viability at 0.1235 µM (RKO; Homo sapiens, RKO, 0.1235 µM, ED Fig. 9g, Repetition, replicates, read-out: RKO Cell viability (%)) of 65.6% and a viability at 0.1235 µM (RKO; Homo sapiens, RKO, 0.1235 µM, ED Fig. 9g, first experiment, replicates, read-out: RKO Cell viability (%)) of 73.7%. The viability at 0.3704 µM (RKO; Homo sapiens, RKO, 0.3704 µM, ED Fig. 9g, Repetition, replicates, read-out: RKO Cell viability (%)) was 25.3%, the viability at 0.3704 µM (RKO; Homo sapiens, RKO, 0.3704 µM, ED Fig. 9g, first experiment, replicates, read-out: RKO Cell viability (%)) was 36.7% and the viability at 1.1111 µM (RKO; Homo sapiens, RKO, 1.1111 µM, ED Fig. 9g, Repetition, replicates, read-out: RKO Cell viability (%)) was 20%. The viability at 1.1111 µM (RKO; Homo sapiens, RKO, 1.1111 µM, ED Fig. 9g, first experiment, replicates, read-out: RKO Cell viability (%)) was 15.3%, the viability at 3.3333 µM (RKO; Homo sapiens, RKO, 3.3333 µM, ED Fig. 9g, Repetition, replicates, read-out: RKO Cell viability (%)) was 19.5% and the viability at 3.3333 µM (RKO; Homo sapiens, RKO, 3.3333 µM, ED Fig. 9g, first experiment, replicates, read-out: RKO Cell viability (%)) was 14.5%. For the same compound, the viability at 10 µM (RKO; Homo sapiens, RKO, 10.0000 µM, ED Fig. 9g, Repetition, replicates, read-out: RKO Cell viability (%)) was 20%, the viability at 10 µM (RKO; Homo sapiens, RKO, 10.0000 µM, ED Fig. 9g, first experiment, replicates, read-out: RKO Cell viability (%)) was 16.2% and the “Anaphase, % (of fully P-H3S10+ cells)” value (KAP^2D cells [1]; Fig. 4f) was 0.00%. The “Metaphase, % (of fully P-H3S10+ cells)” value (KAP^2D cells [1]; Fig. 4f) was 0.00%, the “Multipolar mitosis, % (of fully P-H3S10+ cells)” value (KAP^2D cells [1]; Fig. 4f) was 75.00% and 72.55% and 66.43% and 67.83% and 80.50% and 84.38% and the “Telophase, % (of fully P-H3S10+ cells)” value (KAP^2D cells [1]; Fig. 4f) was 1.72% and 0.65% and 0.70% and 0.00% and 1.89% and 0.78%. The “P-H3S10+ cells, fully positive” value (KAP^2D cells [1]; Fig. 4d) was 12.93% and 17.02% and 15.43% and 13.33% and 14.34% and 14.40%, the “P-H3S10+ cells, partially positive” value (KAP^2D cells [1]; Fig. 4d) was 12.04% and 13.24% and 14.13% and 9.97% and 10.28% and 12.15% and the “Annexin V+ cells” value (KAP^2D cells [2]; 1 d of treatment) was 23.30% and 25.40% and 24.30% and 22.30% and 24.90% and 20.90%. For the same compound, the “Annexin V+ cells” value (KAP^2D cells [2]; 2 d of treatment) was 41.00% and 47.90% and 34.70% and 29.60% and 31.10% and 30.20%, the “Annexin V+ cells” value (KAP^2D cells [2]; 3 d of treatment) was 53.10% and 40.00% and 40.60% and 42.30% and 39.50% and 37.30% and the “Annexin V+ cells” value (KAP^2D cells [2]; 4 d of treatment) was 66.80% and 62.60% and 62.90% and 52.60% and 53.50% and 56.70%. The “annexin V positivity (in words)” value (KAP^2D cells [2]; KAP^2D, after 3–4 days of treatment) was “strongly increased annexin V positivity”, the “survival / therapeutic efficacy in KAP liver metastasis (in words)” value (KAP liver metastasis; 20 mg kg^−1 daily, start 5 weeks after organoid inoculation) was “significantly increased the overall survival” and the Survival (KAP liver metastasis; single animals, 1 = event, 0 = censored, Fig. 6e) was 41 d of treatment and 44 d of treatment and 45 d of treatment and 47 d of treatment and ≥ 50 d of treatment and 34 d of treatment.

Reference: paper PMC11864979, “First-in-class ultralong-target-residence-time p38α inhibitors as a mitosis-targeted therapy for colorectal cancer” (Nature Cancer, 2025)
